These results are taken from US20220281860A1, “COMPOUNDS AND METHODS OF TREATING RNA-MEDIATED DISEASES” (Arrakis Therapeutics, Inc., priority 2016, published 2022).

The assay deals with RNA3WJ_0.0.0_5IB_3FAM. Description: Ligand observed NMR binding assay (WaterLOGSY, STD). The conditions noted are these: 10 μM RNA3WJ_0.0.0_5IB_3FAM +/− 200 compound. As to the method:
Purpose: Test direct binding of compounds for RNA three way junction (3WJ). This ligand observed NMR assay is used to test direct binding of compounds to an RNA target, for example a 38 nt synthetic RNA 3WJ and others as described below. Ligand observed assay was used for hit validation studies of single compounds. Established experiments were eventually used to perform group epitope mapping, described below.
Sample buffer: 10 mM Cacodylate, pH 7.1; 0.68 g [MW: 137.99 g/mol]; fill up to 500 ml with Millipore H2O.
Compound Stocks: Tool compounds provided as dry powder were prepared as 50 mM stock solution in 100% d6-DMSO. […]
Proton 900 pulse is determined and water resonance frequency is adjusted to ensure maximal water suppression. The determined values are transferred to the NMR experiments that will be recorded for the respective sample. […]
Python scripts are used to process all recorded spectra in the assay setup, screening and deconvolution process.
Spectra were analyzed for direct binding signals of the compounds. […]
ARK0000013 was also tested in the NMR binding assay. Test Sample: 10 μM RNA3WJ_0.0.0_5IB_3FAM+/−200 Ark000013. ^1H 1D Watergate & WaterLOGSY spectra recorded of Ark000013 were used as a reference (Note: aromatic signals observed between 7.4-7.9 ppm and due to symmetry of the center triptycene scaffold all 9 protons are magnetically equivalent).

Turning to `CN(CCCN)CCCNC(=O)c1ccc2c(c1)C1c3cc(C(=O)NCCCN(C)CCCN)ccc3C2c2ccc(C(=O)NCCCN(C)CCCN)cc21` [Ark0000013, N^2,N^7,N^15-tris(3-((3-aminopropyl)(methyl)amino)propyl)-9,10-dihydro-9,10-[1,2]benzenoanthracene-2,7,15-tricarboxamide], the STD signals result is listed as “small signals that were sufficient to qualitatively confirm binding”.
